# Tests used:
# MSP1-42 = MSP1-42 (Plasmodium falciparum, UniProt Q8I0U8); assay: Heparin-BSA binding assay; parameters: a C-terminal 42kDa (MSP1-42) fragment; made in house; host or cells: E. coli; species or system P. falciparum; conditions: soluble inhibitor
# Description: Recombinant merozoite antigens were coated (1 μg/mL) onto 96 well plates (Nunc Maxisorb) in HT-PBS overnight at 4° C. Plates were washed and blocked with 1% casein, 1 hr, room temperature. Plates were incubated with heparin-BSA conjugate with soluble inhibitors and detected with anti-BSA (rabbit) (Sigma-Aldrich) antibodies and anti-rabbit -HRP. Detection was performed with 2,2′-azino-bis(3-ethylbenzthiazoline-6-sulphonic acid) (Sigma-Aldrich) monitored for colour change and measured for absorbance at 405 nm. All incubations were performed in HT-PBS 0.1% casein 0:05% Tween20, 1 hr at room temperature. Plates were washed 3 times HT-PBS 0.05% Tween20 between incubations.
# [1] = system: purified P. falciparum merozoites invading RBCs; assay: Invasion inhibition assay (IIA) using purified merozoites; type: cell-based, Plasmodium falciparum
# Description: Purified merozoites were mixed with uninfected RBCs and cultured using standard conditions in 96 well U-bottom plates at a final volume of 50 μl or 100 μl per well. Specific assay conditions were varied for different test conditions, as described in the Results section of the manuscript. Assays were typically performed under static conditions. Some assays were also performed with agitation of merozoite:RBC suspensions.
# To test the activity of inhibitory compounds on invasion (Supporting Information Table 3), E64 treated schizonts were resuspended and filtered in culture medium without human serum. A typical merozoite invasion inhibition assay consisted of filtered merozoites (40 ul) added to RBC suspension (5 ul at […]; final concentration 1% hematocrit) and inhibitory compounds (5 ul at 10-times the final concentration required) in 96-well plates. Merozoite:RBCs suspensions containing inhibitors were incubated for one hour and then washed twice with culture medium to remove inhibitors, then resuspended in fresh culture media and incubated and analysed as for standard merozoite invasion assays. A number of compounds were also tested for inhibition of schizont rupture by incubating late stage schizonts (1-2% parasitaemia, 1% haematocrit in 50 ul) with a 1 in 10 dilution of compounds and monitoring the course of schizont rupture at 3 time points over an 8 hour period by flow cytometry.
# [2] = system: P. falciparum 3D7 parasites; assay: Time course of schizont rupture and merozoite invasion/ring formation; type: cell-based, Plasmodium falciparum; conditions: 100 μg/mL
# Description: 50 μL of synchronous 3D7 parasites at high parasitemia (5-10%), at approximately 32 hrs trophozoites were incubated as for GIAs with or without inhibitors (100 μg/mL). From approximately 44-48 hr schizonts parasite samples were collected, every 3 hrs for 15 hrs. Cells were stained and analysed as for GIAs to evaluate parasitemia and parasite stage.
# To define the mechanism of action of heparin and heparin-like molecules Applicant performed time-course studies of schizont rupture, merozoite invasion and intra-erythrocytic development of P. falciparum in the presence of heparin. Parasite stages were evaluated using flow-cytometry, differentiating between late stage trophozoites and schizont versus ring stage parasites with ethidium bromide staining. […] No inhibition of infra-erythrocytic growth was observed (data not shown).
# [3] = system: P. falciparum merozoite invasion of erythrocytes; assay: Live video microscopy of merozoite invasion; type: cell-based, Plasmodium falciparum; conditions: 100 μg/mL; 4529 seconds filming, 15 rupture events
# Description: Parasites cultures of 5-10% late stage schizonts were filmed with video microscopy in normal culture media, 37° C. 6% CO2 with humidification with or without 100 μg/mL of inhibitory compounds added to cultures as described previously. 35. Gilson P R, Crabb B S (2009) Morphology and kinetics of the three distinct phases of red blood cell invasion by Plasmodium falciparum merozoites. Int J Parasitol 39: 91-96.
# A mechanism of action of heparin was next determined using live time-lapse microscopy. In control parasite cultures, schizont rupture and step-wise invasion of erythrocytes by merozoites was readily observed (FIG. 7C). During merozoite invasion of erythrocytes, Applicant observed initial contact with erythrocyte surface resulting in brief deformation of erythrocytes, merozoite reorientation, mechanical invasion resulting in erythrocyte deformation, and erythrocyte re-shaping upon complete invasion, as reported previously. […] Initial contact of merozoites with the erythrocyte surface was also observed; however, contact between erythrocytes and merozoites was not sustained, and merozoites dissociated after various lengths of time (FIG. 7D). No successful invasion events were observed; additionally, reorientation of merozoites and deformation of erythrocytes were not clearly seen, although the observation of merozoite reorientation is limited due to microscope resolution. […]
# Chain of MSP1-42 (Q8I0U8 1327-1699): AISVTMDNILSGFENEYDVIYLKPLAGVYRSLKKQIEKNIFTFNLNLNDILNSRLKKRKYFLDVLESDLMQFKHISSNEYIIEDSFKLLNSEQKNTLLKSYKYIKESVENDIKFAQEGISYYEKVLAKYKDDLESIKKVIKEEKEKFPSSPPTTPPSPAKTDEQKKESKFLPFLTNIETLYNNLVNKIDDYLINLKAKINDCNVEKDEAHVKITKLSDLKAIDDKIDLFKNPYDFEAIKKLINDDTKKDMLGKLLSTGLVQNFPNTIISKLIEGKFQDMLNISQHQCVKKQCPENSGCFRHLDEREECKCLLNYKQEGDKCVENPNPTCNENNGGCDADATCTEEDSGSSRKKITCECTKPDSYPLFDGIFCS
substance,measurement,setting,value
Heparin,inhibition of heparin-BSA binding to recombinant MSP1-42,MSP1-42,inhibited in a concentration-dependent manner
same,inhibition of merozoite invasion in IIA,[1],effectively inhibited merozoite invasion
same,rates of merozoite invasion and ring formation,[2],very low
same,schizont rupture compared to control,[2],"some delay, but not complete inhibition"
same,inhibition of intra-erythrocytic growth,[2]; data not shown,No inhibition
same,successful invasion events observed,[3],no successful invasion observed
